Laboratory results as given in patent US20080188688A1, “SOLVENTS FOR PHASE-TRANSFER-CATALYZED REACTIONS” (priority 2007, published 2008).

Assay: Log P determined in accordance with OECD Guideline No. 107 for the Testing of Chemicals (water/n-octanol)
[1] = Log P (Log P value of the solvent, as measured in accordance with Guideline No. 107), summary table of the examples
[2] = Log P determined in accordance with OECD Guideline 107 for the Testing of Chemicals, water/n-octanol 1:1 by weight, 20° C.
[3] = log P value, as printed in the abbreviations list

Row | Compound | logP [1] | logP [2] | logP [3]
1 | CCCCCCCCCC(=O)N(C)C [Decanoic acid dimethyl amide] | 2.94 | 2.94 | 2.94
2 | CC(=O)CC(C)C [MIBK, methyl isobutyl ketone] | 1.4 | 1.4 | 1.31
3 | COC(C)(C)C [MTBE, methyl tert.butyl ether] | 1.12 | 1.12 | 
